From ChEMBL document CHEMBL4184135, “Waspergillamide A, a Nitro depsi-Tetrapeptide Diketopiperazine from an Australian Mud Dauber Wasp-Associated Aspergillus sp. (CMB-W031)” (J Nat Prod, 2017)
Active and inactive are the calls of the source.

How the values were obtained:
Staphylococcus aureus = experiment: Antimicrobial activity against Staphylococcus aureus ATCC 25923 assessed as inhibition of microbial growth at 0.125 to 32 ug/mL incubated for 24 hrs by broth micro-dilution method; assay type: functional, organism-based
Escherichia coli = experiment: Antimicrobial activity against Escherichia coli ATCC 25922 assessed as inhibition of microbial growth at 0.125 to 32 ug/mL incubated for 24 hrs by broth micro-dilution method; assay type: functional, organism-based
Pseudomonas aeruginosa = experiment: Antimicrobial activity against Pseudomonas aeruginosa ATCC 27853 assessed as inhibition of microbial growth at 0.125 to 32 ug/mL incubated for 24 hrs by broth micro-dilution method; assay type: functional, organism-based
SW-620 = experiment: Cytotoxicity against human SW620 cells assessed as inhibition of cell growth at 10 nM to 30 uM incubated for 72 hrs by MTT assay; assay type: functional, cell-based
NCI-H460 = experiment: Cytotoxicity against human NCI-H460 cells assessed as inhibition of cell growth at 10 nM to 30 uM incubated for 72 hrs by MTT assay; assay type: functional, cell-based
KB 3-1 = experiment: Cytotoxicity against human KB-3-1 cells assessed as inhibition of cell growth at 10 nM to 30 uM incubated for 72 hrs by MTT assay; assay type: functional, cell-based

Measured: growth inhibition (GI)

CC(C)/C=C1\NC(=O)[C@@H](C(C)(C)OC(=O)CNC(=O)c2ccc([N+](=O)[O-])cc2)NC1=O
inactive: all assays above
